The source of these data is patent US7018817B1, “Process for the preparation of compounds with enhanced optical purity” (DSM IP Assets B.V., priority 1998, dated 2006).

In the first test the test system is known peptide deformylases.
Experiment: not given
The conditions noted are these: Rajagopalan et al., Biochemistry 1997; cited from earlier work.
Regarding `CSCC[C@H](NC=O)C(=O)O` [N-formylmethionine], the “deformylase activity of known peptide deformylases towards the substrate” value is reported as “no or little activity”.

The subject of another test is L-aminoacylases.
Experiment: not given
The conditions noted are these: U.S. Pat. No. 4,745,067; cited from earlier work.
`CSCC[C@H](NC=O)C(=O)O` [N-formyl-L-methionine]: the “activity of L-aminoacylases towards the substrate” value is reported as “low”.

The target in another test is T1, PDF(Fe) (peptide deformylase) (Escherichia coli, UniProt P0A6K3).
T1 construct: made in house; host or cells: overproducing E. coli cells
T1 sequence (P0A6K3 whole entry): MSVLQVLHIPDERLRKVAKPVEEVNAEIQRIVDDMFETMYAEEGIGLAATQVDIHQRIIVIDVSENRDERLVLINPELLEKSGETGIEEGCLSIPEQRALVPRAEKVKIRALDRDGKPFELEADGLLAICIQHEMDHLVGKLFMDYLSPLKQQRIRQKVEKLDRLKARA
Description: Enantioselective enzymatic deformylation of N-formyl compounds by PDF(Fe), HPLC analysis. The conditions noted are these: Method A: 100 mM MOPS/NaOH, 2 M Li2SO4, pH 7.2, 37° C. The test is classed as biochemical, E. coli. The procedure: PDF(Fe) was isolated from overproducing E. coli cells grown at 30° C. in 1.6 l TB medium for 14–16 h. About 13 g (wet weight) cell paste were suspended in 26 ml buffer (20 mM Hepes/KOH, 100 mM KF, pH 7.7 supplemented with 10 μg/ml catalase from bovine liver (Boehringer Mannheim) and 1 mM AEBSF, disintegrated by sonication (Branson B12, 20 min) at 0° C. and centrifuged at 200.000 g for 1 h. The clear supernatant (1.3 g of protein; according to biurete reaction) was mixed with 1.3 ml 10% (w/v) Polymin G-35 (BASF) adjusted to pH 7.7 and centrifuged at 40.000 g for 10 min. The supernatant was applied to a 20 ml Met-Lys-Sepharose column that had been equilibrated with 20 mM Hepes/KOH, 100 mM KF, 0.2 mM TCEP, pH 7.7. After washing with 120 ml of 20 mM Hepes/KOH, 100 mM KF, 0.2 mM TCEP, pH 7.7, PDF(Fe) was eluted with 150 ml 20 mM Hepes/KOH, 100 mM KCl, 0.2 mM TCEP, pH 7.7. The protein containing fractions were concentrated by ultrafiltration using an Amicon PM10 membrane (yield: 140 mg protein, 1400 U/mg; determined according to Groche et al.). After adjustment of the TCEP concentration to 1 mM and protein concentration to 40 mg/ml, the PDF(Fe) stock solution (40 mg/ml=2 mM) was stored frozen at −60° C. After thawing, the PDF(Fe) stock solution could be used directly in the deformylation experiments described below. If however solutions with lower PDF(Fe) concentrations were required for these deformylation experiments, the PDF stock solution was diluted further in 20 mM Hepes/KOH, pH 7.7, 100 mM KCl, 1 mg/ml bovine serum albumin, 10 μg/ml catalase solution.
In all cases HPLC conditions had to be developed in which the two deformylated isomers were separated from each other and from the formylated isomers. To this end two different techniques were applied that is method 1 and method 2, as described below.
From the quantities of deformylated isomers in the samples after various reaction times, both the initial deformylation rate constant (kf and ks in M^−1s^−1) could be calculated for both enantiomers, as well as the respective ee values. The enantioselectivity of the enzyme (E value) was calculated by taking the ratio of kf/ks and is given for all Examples in table 1, as well as the maximum ee value (eemax) observed during the experiments.
A Crownpak CR(+) column (4×150 mm) was used. Samples (5 μl) withdrawn from the deformylation mixture were mixed with 95 μl aqueous HClO4 (10 mM) to inactivate PDF(Fe). Following a brief centrifugation, 20 μl of the supernatant were applied to the Crownpak CR(+) column. For specific chromatographic conditions and retention times see table 2.
Method 2 (Precolumn derivatization with o-phthaldialdehyde (OPA) and N-acetyl-L-cysteine (NAC). Samples (25 μl) withdrawn from the deformylation mixture were mixed with 25 μl aqueous HClO4 (100 mM) to inactivate PDF(Fe). Following a brief centrifugation, 40 μl of the supernatant were added to 80 μl 1 M aqueous H3BO3/NaOH pH 9.4, subsequently 20 μl OPA reagent (consisting of OPA in H2O/CH3OH 1:1 v/v with a concentration as indicated in table 3) and 20 μl NAC reagent (consisting of NAC in H2O/CH3OH 1:1 v/v with a concentration as indicated in table 3) was added. After the time indicated in table 3 derivatization was terminated by addition of 80 μl (250 mM) aqueous H3PO4, and 20 μl of the solution were instantaneously applied to a Nucleosil 120-5 C18 (250×4 mm) column. Temperature was always ambient and detection was spectrophotometric using a wavelength of 257 nm and/or 340 nm. The used eluent was a mixture of aqueous 0.05 M H3PO4 brought at pH 7.0 with 1 M NaOH, and a percentage of acetonitrile as indicated in table 3. For derivatization of valine aminonitrile borate buffer was adjusted to pH 11 and addition of NAC reagent was done 10 min after OPA reagent had been added. Concentration of H3PO4 used for termination was 500 mM. Derivatization and separation conditions as well as the observed retention times for the deformylated compounds analyzed are compiled in table 3. […]
With `CC(NC=O)c1cccc2ccccc12` (stereo not drawn) [Example 12, N-formyl-1-(1-naphthyl)-ethylamine], the “E (enantioselectivity, kf/ks)” value was 15; the “eemax (maximum ee value observed)” value came out at 90%; the “kf (rate of deformylation of the most rapidly deformylated enantiomer)” value is 0,45 M^−1s^−1; the “ks (rate of deformylation of the least rapidly deformylated enantiomer)” value turned out to be 0.03 M⁻¹ s⁻¹.
Take `O=CNC(CO)c1ccccc1` (stereo not drawn) [Example 6, N-formyl-phenylglycinol]: the “E (enantioselectivity, kf/ks)” value is 18,5; the “eemax (maximum ee value observed)” value is 93,3%; the “kf (rate of deformylation of the most rapidly deformylated enantiomer)” value was 6,3 M^−1s^−1; the “ks (rate of deformylation of the least rapidly deformylated enantiomer)” value came out at 0.34 M⁻¹ s⁻¹.
With “N-acetyl-phenylglycine amide [Comparative Experiment A, reference compound]”, the “kf (rate of deformylation of the most rapidly deformylated enantiomer)” value is reported as <0,001 M^−1s^−1 and the “ks (rate of deformylation of the least rapidly deformylated enantiomer)” value was <0.001 M⁻¹ s⁻¹.
The matching figures for `O=CN1CCC[C@H]1C(=O)O` [Comparative Experiment B, N-formyl-proline, reference compound]: <0,004 M^−1s^−1 and <0.004 M⁻¹ s⁻¹.
As to `C[C@@H](CO)NC=O` [Example 8, N-formyl-alaninol], the “E (enantioselectivity, kf/ks)” value is listed as 12; the “eemax (maximum ee value observed)” value is 85,6%; the “kf (rate of deformylation of the most rapidly deformylated enantiomer)” value is 0,22 M^−1s^−1; the “ks (rate of deformylation of the least rapidly deformylated enantiomer)” value was determined as 0.018 M⁻¹ s⁻¹.
Consider `CC(C)C(C#N)NC=O` (stereo not drawn) [Example 10, N-formyl-valine aminonitrile], for which the “E (enantioselectivity, kf/ks)” value is reported as 47,9; the “eemax (maximum ee value observed)” value is 95,5%; the “kf (rate of deformylation of the most rapidly deformylated enantiomer)” value is given as 29,7 M^−1s^−1; the “ks (rate of deformylation of the least rapidly deformylated enantiomer)” value was 0.62 M⁻¹ s⁻¹.

The same test, now with this note: Method B: absence of Li2SO4, 100 mM MOPS/NaOH, 250 mM NaCl, 0.1 mg/ml catalase, pH 7.2, 37° C.
`O=CNC(CO)c1ccccc1` (stereo not drawn) [Example 6, N-formyl-phenylglycinol]: the “E (enantioselectivity, kf/ks)” value was 23,8; the “eemax (maximum ee value observed)” value was 90,5%; the “kf (rate of deformylation of the most rapidly deformylated enantiomer)” value is listed as 0,69 M^−1s^−1; the “ks (rate of deformylation of the least rapidly deformylated enantiomer)” value is 0.029 M⁻¹ s⁻¹.
In the same order, the values of `COc1cccc(CC(C#N)NC=O)c1` (stereo not drawn) [Example 11, N-formyl-m-methoxy-phenylalanine aminonitrile] are 685, 99,0%, 1370 M⁻¹ s⁻¹ and 2 M⁻¹ s⁻¹.
With `O=CNC(CC(=O)O)c1ccccc1` (stereo not drawn) [Example 2, N-formyl-3-amino-3-phenyl-propionic acid], the “E (enantioselectivity, kf/ks)” value is listed as >1775; the “eemax (maximum ee value observed)” value stood at 100%; the “kf (rate of deformylation of the most rapidly deformylated enantiomer)” value is 7,1 M^−1s^−1; the “ks (rate of deformylation of the least rapidly deformylated enantiomer)” value was <0.004 M⁻¹ s⁻¹.
The matching figures for `O=CNC(C(=O)O)c1ccccc1` (stereo not drawn) [Example 1, N-formyl-phenylglycine]: 2255, 99,6%, 10,6 M^−1s^−1 and 0.0047 M⁻¹ s⁻¹.

The same test, now with this note: Method C: absence of Li2SO4, 100 mM MES/NaOH, pH 6.2, 37° C.
In the case of `N#CC(Cc1ccccc1)NC=O` (stereo not drawn) [Example 9, N-formyl-phenylalanine aminonitrile], the “E (enantioselectivity, kf/ks)” value stood at 880; the “eemax (maximum ee value observed)” value is recorded as 98,8%; the “kf (rate of deformylation of the most rapidly deformylated enantiomer)” value was 880 M⁻¹ s⁻¹; the “ks (rate of deformylation of the least rapidly deformylated enantiomer)” value stood at 1 M⁻¹ s⁻¹.
